Source: ChEMBL document CHEMBL1129382, “Synthesis of chiral 1-(2'-amino-2'-carboxyethyl)-1,4-dihydro-6,7-quinoxaline-2,3-diones: alpha-amino-3-hydroxy-5-methyl-4-isoxazolepropionate receptor agonists and antagonists” (J Med Chem, 1996)

How the values were obtained:
[1] = target: Glutamate receptor ionotropic, AMPA (Rattus norvegicus) (UniProt P19491+P19492+P19493+P19490); experiment: Displacement of [3H]- AMPA from Ionotropic glutamate receptor of rat brain; set-up: concentration or dose not given beside the values; conditions: concentration not given here
[2] = target: Glutamate receptor ionotropic, kainate (Rattus norvegicus) (UniProt P22756+Q01812+P42260+P42264+Q63273); experiment: Displacement of [3H]- Kainate from Ionotropic glutamate receptor kainate of rat brain homogenates.; format: tissue-based; set-up: concentration or dose not given beside the values; conditions: concentration not given here
[3] = target: Glutamate receptor ionotropic, kainate; experiment: Inhibition of [3H]- Kainate binding to Ionotropic glutamate receptor kainate in brain homogenates.; format: tissue-based, Rattus norvegicus
[4] = target: Glutamate receptor ionotropic, AMPA (Rattus norvegicus, UniProt P19490+P19491+P19492+P19493); experiment: Compound (100 uM) was evaluated for inhibition of Ionotropic glutamate receptor AMPA by using [3H]- AMPA; format: protein-complex assay
[5] = organism: Rattus norvegicus; experiment: Functional antagonist activity was determined by the ability to inhibit AMPA stimulated [3H]norepinephrine release from rat hippocampal slices.; conditions: Hippocampus

Row | inhibition [1] [%] | inhibition [2] [%] | IC50 [3] [µM] | IC50 [4] [µM] | EC50 [5] [µM] | SMILES
1 | 0 | 4 | – | – | – | N[C@@H]1COC1=O
2 | – | – | 5 | 47 | – | Cc1cc2[nH]c(=O)c(=O)n(C[C@H](CO)NC(=O)OC(C)(C)C)c2cc1C
3 | – | – | 11 | 4 | – | Cc1cc(N)c(NC(=O)[C@@H](CO)NC(=O)OC(C)(C)C)cc1C
4 | 77 | 5 | – | – | – | N[C@H](Cn1c(=O)c(=O)[nH]c2ccccc21)C(=O)O [listing 1 of 3 here]
5 | 99 | 81 | – | – | – | O=[N+]([O-])c1cc2nc(O)c(O)nc2cc1[N+](=O)[O-]
6 | – | – | 0.74 | – | – | O=c1[nH]c2cc([N+](=O)[O-])c([N+](=O)[O-])cc2[nH]c1=O [DNQX]
7 | 15 | 7 | – | – | – | Cc1cc(N)c(NC[C@H](N)C(=O)O)cc1C
8 | 0 | 0 | – | – | – | Nc1ccccc1NC[C@@H](N)C(=O)O
9 | – | – | 0.69 | – | – | N[C@H](Cn1c(=O)c(=O)[nH]c2ccccc21)C(=O)O [listing 2 of 3 here]
10 | – | – | 11 | 12 | – | Cc1cc2[nH]c(=O)c(=O)n(C(=O)[C@@H](CO)NC(=O)OC(C)(C)C)c2cc1C
11 | – | – | 38 | – | – | N[C@H](Cn1c(=O)c(=O)[nH]c2ccccc21)C(=O)O [listing 3 of 3 here]
12 | 11 | 5 | – | – | – | N[C@H]1COC1=O
13 | 66 | 38 | 51 | – | 290 | Cc1cc2[nH]c(=O)c(=O)n(C[C@H](N)C(=O)O)c2cc1C
14 | 95 | 27 | 0.23 | – | – | N[C@@H](Cn1c(=O)c(=O)[nH]c2ccccc21)C(=O)O
15 | 15 | 0 | – | – | – | Cc1cc(N)c(NC[C@@H](N)C(=O)O)cc1C
16 | 62 | 27 | 22 | – | 300 | Cc1cc2[nH]c(=O)c(=O)n(C[C@@H](N)C(=O)O)c2cc1C
17 | 70 | 14 | – | – | – | Nc1ccccc1NC[C@H](N)C(=O)O

Row | SMILES | inhibition [1] [%] | inhibition [2] [%] | IC50 [3] [µM] | IC50 [4] [µM] | EC50 [5] [µM]
18 | Cc1cc2[nH]c(=O)c(=O)n(C(=O)[C@H](N)CO)c2cc1C | 14 | 15 | – | – | –
19 | Cc1cc2[nH]c(=O)c(=O)n(C(=O)[C@@H](N)CO)c2cc1C | 24 | 16 | – | – | –
20 | Cc1cc2[nH]c(=O)n(C(=O)[C@@H](N)CO)c2cc1C | 21 | 13 | – | – | –
